The subject of one experiment is ob/ob and db/db mice. Particulars: following 8 weeks of administration; cited from earlier work.
For experiment [1], the target named is recombinant human AMPK complex 7 (containing α2β1γ1) (Homo sapiens, UniProt P54646+Q9Y478). The experiment can be described thus: in vitro AMPK activation assay (AMPKSAMSF). Format: biochemical. Particulars: for EC50: inflection point reflecting 50% of the maximum activation, human AMPK Complex 7; for Emax: recombinant human AMPK complex 7 (α2β1γ1), 10-point titration expressed as % maximum AMP activation. As to the method: The recombinant human AMPK complex 1 (containing α1β1γ1) or AMPK complex 7 (containing α2β1γ1) was obtained from baculovirus expression system. Recombinant viruses were generated by cotransfection of AMPK/pBacPak9 clones with Baculogold baculovirus DNA (Pharmingen) in spodoptera frugiperda 21 cells according to the manufacturer's instructions. Each round of virus amplification was performed for 5 days in Grace's medium containing 10% serum. Virus that had been subjected to three rounds of amplification was used for all protein production procedures. To express the AMPK complex, sf21 cells were adapted to serum free medium (SF900 II, Invitrogen) by sequential dilution from serum containing stocks into SF900II medium and maintained in shaker flasks at 90 rpm at 27° C. The recombinant AMPK enzyme complex was produced by triple infection, one recombinant virus for each of the subunits, in sf21 cells under serum free conditions. Cells were infected in log phase, 1×10^6 cells/ml, at a multiplicity of infection of ˜5. Cells were harvested by centrifugation at 10,000×g for 15 minutes after 72 hours of infection with viruses. The insect cell pellet from 2 liters of culture was resuspended in 50 ml lysis buffer (20 mM Tris-HCl, 50 mM NaCl, 50 mM NaF, 30 mM Na PPi, 0.25 M sucrose, 10 mM ZnCl2, 2 mM DTT, 0.4 mg/ml digitonin) and subjected to two cycles of freeze-thaw lysis in a dry-ice ethanol bath. Insoluble material was removed by centrifugation at 10,000×g and the supernatant was fractionated with use of polyethylene glycol (PEG). The protein fraction precipitating between 2.5 and 6% PEG was used for further purification using a Blue-Sepharose step (Zhou et al, J. Clin. Invest. 108, 1167-1174, 2001).
Chain of recombinant human AMPK complex 7 (containing α2β1γ1) (P54646 whole entry): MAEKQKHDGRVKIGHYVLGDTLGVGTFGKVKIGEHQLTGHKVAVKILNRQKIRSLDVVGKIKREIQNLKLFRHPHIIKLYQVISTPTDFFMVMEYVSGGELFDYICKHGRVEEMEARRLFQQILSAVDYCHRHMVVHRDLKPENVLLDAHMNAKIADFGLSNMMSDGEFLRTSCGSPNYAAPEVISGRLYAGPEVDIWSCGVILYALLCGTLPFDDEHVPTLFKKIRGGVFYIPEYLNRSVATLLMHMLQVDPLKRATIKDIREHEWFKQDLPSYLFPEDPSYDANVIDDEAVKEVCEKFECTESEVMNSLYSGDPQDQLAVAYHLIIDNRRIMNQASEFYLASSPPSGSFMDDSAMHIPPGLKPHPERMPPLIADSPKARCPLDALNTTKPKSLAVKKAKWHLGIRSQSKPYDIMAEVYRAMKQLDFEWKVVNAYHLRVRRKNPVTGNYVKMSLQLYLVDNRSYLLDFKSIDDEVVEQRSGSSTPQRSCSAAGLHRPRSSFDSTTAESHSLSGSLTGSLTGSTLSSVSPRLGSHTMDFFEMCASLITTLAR
Chain of recombinant human AMPK complex 7 (containing α2β1γ1) (Q9Y478 whole entry): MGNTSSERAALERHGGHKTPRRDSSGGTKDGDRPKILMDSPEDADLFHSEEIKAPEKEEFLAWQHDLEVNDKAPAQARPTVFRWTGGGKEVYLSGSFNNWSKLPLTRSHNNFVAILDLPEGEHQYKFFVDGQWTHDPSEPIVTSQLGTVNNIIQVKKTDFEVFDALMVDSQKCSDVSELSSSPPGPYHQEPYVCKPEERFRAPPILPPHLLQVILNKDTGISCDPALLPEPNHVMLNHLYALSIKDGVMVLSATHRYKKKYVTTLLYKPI
Chain of recombinant human AMPK complex 7 (containing α2β1γ1) (P54619 whole entry partner): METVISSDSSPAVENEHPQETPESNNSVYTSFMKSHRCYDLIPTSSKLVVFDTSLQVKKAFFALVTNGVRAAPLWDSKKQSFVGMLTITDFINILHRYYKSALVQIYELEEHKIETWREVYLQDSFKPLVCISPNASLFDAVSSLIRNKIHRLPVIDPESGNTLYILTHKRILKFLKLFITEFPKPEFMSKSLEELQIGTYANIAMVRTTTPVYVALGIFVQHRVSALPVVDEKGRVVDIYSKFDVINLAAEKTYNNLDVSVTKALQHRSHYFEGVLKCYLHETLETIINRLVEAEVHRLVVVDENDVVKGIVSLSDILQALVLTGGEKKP
The in vitro AMPK activation assay is performed in a volume of 30 μl in a 384-well plate. Enzyme reactions were assembled in the microtiter plate by adding 15 μl of 2× enzyme in assay buffer (20 mM HEPES, pH 7.3, 5 mM MgCl2, 3 mM DTT, 0.01% Brij 35 and CamK Kinase, to activate AMPK) to wells which contained either DMSO or compound. The reaction was initiated with the addition of 15 μl 2× substrate mixture containing 200 μM ATP, and 3.0 μM fluorescently labeled SAMS (5-FAM-HMRSAMSGLHLVKRR-COOH) in assay buffer. After 45-minute incubation at 25° C., the reaction was stopped by the addition of 70 μl stop buffer (100 mM HEPES, pH 7.3, 40 mM EDTA, 0.015% Brij 35). Phosphorylated 5-FAM SAMS product is assessed using a Caliper EZ Reader LabChip microfluidics reader. Product conversion is determined by calculating the peak heights of the substrate and product and reporting the product/(product+substrate) peak ratio. The 10-point titration data were expressed as % maximum AMP activation. The results were plotted using 4 parameter fit and the inflection point reflecting 50% of the maximum activation was reported as the EC50.

With `NC(=O)c1ncn([C@@H]2O[C@H](CO)[C@@H](O)[C@H]2O)c1N` [AICAR], the blood glucose reduction in the experiment on ob/ob and db/db mice was 35%.
Consider `OC[C@H]1OC[C@@H](Oc2nc3nc(-c4ccc(-c5ccc(-n6cccn6)nc5)cc4)c(Cl)cc3[nH]2)[C@@H]1O` [Example 1, (2R,3R,4R)-4-[[6-chloro-5-[4-(6-pyrazol-1-yl-3-pyridyl)phenyl]-1H-imidazo[4,5-b]pyridin-2-yl]oxy]-2-(hydroxymethyl)tetrahydrofuran-3-ol], for which, in experiment [1], the EC50 is 16 nM and the Emax was found to be 188%.
On to `OC[C@H]1OC[C@@H](Oc2nc3nc(-c4ccc(-c5ccc(-n6cccn6)cc5)cc4)c(Cl)cc3[nH]2)[C@@H]1O` [Example 2], for which, in experiment [1], the EC50 was 4 nM and the Emax worked out at 315%.
The like results for `OC[C@H]1OC[C@@H](Oc2nc3nc(-c4ccc(-c5ccccc5)cc4)c(Cl)cc3[nH]2)[C@@H]1O` [Example 3] were, in that order, 13 nM and 338%.
With `OC[C@H]1OC[C@@H](Oc2nc3nc(-c4ccc(-c5ccc(-n6nccn6)cc5)cc4)c(Cl)cc3[nH]2)[C@@H]1O` [Example 4, (2R,3R,4R)-4-[[6-chloro-5-[4-[4-(triazol-2-yl)phenyl]phenyl]-1H-imidazo[4,5-b]pyridin-2-yl]oxy]2-(hydroxymethyl)tetrahydrofuran-3-ol], in experiment [1], the EC50 is 20 nM and the Emax came to 206%.
As for `OC[C@H]1OC[C@@H](Oc2nc3nc(-c4ccc(-c5ccc(-n6cncn6)cc5)cc4)c(Cl)cc3[nH]2)[C@@H]1O` [Example 5, (2R,3R,4R)-4-[[6-chloro-5-[4-[4-(1,2,4-triazol-1-yl)phenyl]phenyl]-1H-imidazo[4,5-b]pyridin-2-yl]oxy]-2-(hydroxymethyl)tetrahydrofuran-3-ol], in experiment [1], the EC50 amounted to 2 nM and the Emax is 261%.
For `CC(C)(O)Cc1cnn(-c2ccc(-c3ccc(-c4nc5nc(O[C@@H]6CO[C@H](CO)[C@H]6O)[nH]c5cc4Cl)cc3)cc2)c1` [Example 6], in experiment [1], the EC50 came out at 5 nM and the maximal response (Emax) amounted to 268%.
On to `OC[C@H]1OC[C@@H](Oc2nc3nc(-c4ccc(-c5ccc(-n6cnnn6)cc5)cc4)c(Cl)cc3[nH]2)[C@@H]1O` [Example 7, (2R,3R,4R)-4-[[6-chloro-5-[4-[4-(tetrazol-1-yl)phenyl]phenyl]-1H-imidazo[4,5-b]pyridin-2-yl]oxy]-2-(hydroxymethyl)tetrahydrofuran-3-ol], for which, in experiment [1], the EC50 worked out at 3 nM and the Emax was 282%.
Regarding `CC(C)(O)Cn1cc2c(n1)CN(c1ccc(-c3nc4nc(O[C@@H]5CO[C@H](CO)[C@H]5O)[nH]c4cc3Cl)cc1)C2` [Example 8, (2R,3R,4R)-4-[[6-chloro-5-[4-[2-(2-hydroxy-2-methyl-propy)-4,6-dihydropyrrolo[3,4-c]pyrazol-5-yl]phenyl]-1H-imidazo[4,5-b]pyridin-2-yl]oxy]-2-(hydroxymethyl)-tetrahydrofuran-3-ol; 2,2,2-trifluoroacetic acid], in experiment [1], the EC50 amounted to 9 nM and the Emax stood at 332%.
As to `CC(C)(F)Cn1cc2c(n1)CN(c1ccc(-c3nc4nc(O[C@@H]5CO[C@H](CO)[C@H]5O)[nH]c4cc3Cl)cc1)C2` [Example 9, (2R,3R,4R)-4-[[6-chloro-5-[4-[2-(2-fluoro-2-methyl-propyl)-4,6-dihydropyrrolo[3,4-c]pyrazol-5-yl]phenyl]-1H-imidazo[4,5-b]pyridin-2-yl]oxy]-2-(hydroxymethyl)tetrahydrofuran-3-ol], in experiment [1], the EC50 was determined as 11 nM and the Emax stood at 294%.
Regarding `OC[C@H]1OC[C@@H](Oc2nc3nc(-c4ccc(Br)cc4)c(Cl)cc3[nH]2)[C@@H]1O` [Example 10, (2R,3R,4R)-4-[[5-(4-bromophenyl)-6-chloro-1H-imidazo[4,5-b]pyridin-2-yl]oxy]-2-(hydroxymethyl)tetrahydrofuran-3-ol], in experiment [1], the EC50 was determined as 3650 nM and the Emax was determined as 209%.
`O=C(O)[C@H]1OC[C@@H](Oc2nc3nc(-c4ccc(-c5ccccc5)cc4)c(Cl)cc3[nH]2)[C@@H]1O` [Example 12, (2S,3S,4R)-4-[[6-chloro-5-(4-phenylphenyl)-1H-imidazo[4,5-b]pyridin-2-yl]oxy]-3-hydroxy-tetrahydrofuran-2-carboxylic acid]: in experiment [1], the EC50 came out at 332 nM and the Emax was 313%.
For `C[C@]1(O)[C@@H](CO)OC[C@H]1Oc1nc2nc(-c3ccc(-c4ccccc4)cc3)c(Cl)cc2[nH]1` [Example 14, (2R,3S,4R)-4-[[6-chloro-5-(4-phenylphenyl)-1H-imidazo[4,5-b]pyridin-2-yl]oxy]-2-(hydroxymethyl)-3-methyl-tetrahydrofuran-3-ol] the same measures were 289 nM and 203%.
The like results for `OC[C@H]1OC[C@@H](Oc2nc3nc(-c4ccc(-c5ccccc5F)cc4)c(Cl)cc3[nH]2)[C@@H]1O` [Example 18] were, in that order, 32 nM and 294%.
For `OC[C@H]1OC[C@@H](Oc2nc3nc(-c4ccc(-c5cccc(F)c5)cc4)c(Cl)cc3[nH]2)[C@@H]1O` [Example 19], in experiment [1], the EC50 stood at 126 nM and the Emax was found to be 231%.
In the case of `N#CCCn1nnnc1-c1ccc(-c2ccc(-c3nc4nc(O[C@@H]5CO[C@H](CO)[C@H]5O)[nH]c4cc3Cl)cc2)cc1` [Example 20], in experiment [1], the EC50 turned out to be 8 nM and the Emax is 242%.
With `OC[C@H]1OC[C@@H](Oc2nc3nc(-c4ccc(-c5ccc(F)cc5F)cc4)c(Cl)cc3[nH]2)[C@@H]1O` [Example 21], in experiment [1], the EC50 was 85 nM and the Emax stood at 307%.
In the case of `OC[C@H]1OC[C@@H](Oc2nc3nc(-c4ccc(-c5ccc(N6CCOCC6)cc5)cc4)c(Cl)cc3[nH]2)[C@@H]1O` [Example 22], in experiment [1], the 50% effective concentration (EC50) amounted to 5 nM and the Emax was 252%.
For `OC[C@H]1OC[C@@H](Oc2nc3nc(-c4ccc(-c5ccc(F)cc5)cc4)c(Cl)cc3[nH]2)[C@@H]1O` [Example 23], in experiment [1], the EC50 is 38 nM and the Emax worked out at 231%.

The values are drawn from patent publication US9868733B2, “Azabenzimidazole tetrahydrofuran derivatives” (Merck Sharp & Dohme Corp., priority 2012, dated 2018).
